In the supplement of paper PMC11061612:

Key:
Experiment in all cases: combination Emax (second highest fraction inhibited in the dose matrix, 72 h); higher = more inhibition; extreme values may be limits of the assay
[1] = system: HT-1376 (Bladder Carcinoma)
Outline: (§1)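 Cell lines grown in DMEM/F12 or RPMI with 10% FBS were plated in 1536-well plates and held 24 hours at 37°C, 5% CO2 before 72 hours of exposure to two-drug dose matrices, with DMSO typically at 0.2%. CellTiter-Glo 2.0 luminescence gave viability, which was converted to inhibition. Vehicle wells were set to 0 and blank wells to 1. Combination Emax is the second-highest inhibition in the matrix, and Bliss excess is the observed combination effect minus the expected EA + EB − EA·EB, where EA and EB are the single-agent effects.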

AGS (Gastric Carcinoma) = system: AGS (Gastric Carcinoma)
Outline: as §1

[2] = system: LS-180 (Colorectal Carcinoma)
Outline: as §1

[3] = system: MDA-MB-361 (Breast Carcinoma)
Outline: as §1

[4] = system: DoTc2-4510 (Cervical Carcinoma)
Outline: as §1

[5] = system: Hs-578-T (Breast Carcinoma)
Outline: as §1

[6] = system: B-CPAP (Thyroid Gland Carcinoma)
Outline: as §1

[7] = system: HO-1-N-1 (Oral Cavity Carcinoma)
Outline: as §1

T98G (Glioblastoma) = system: T98G (Glioblastoma)
Outline: as §1

[8] = system: SK-ES-1 (Ewing's Sarcoma)
Outline: as §1

[9] = system: NCI-H82 (Small Cell Lung Carcinoma)
Outline: as §1

[10] = system: COLO-205 (Colorectal Carcinoma)
Outline: as §1

| Compound | combination Emax [1] | combination Emax (AGS (Gastric Carcinoma)) | combination Emax [2] | combination Emax [3] | combination Emax [4] | combination Emax [5] | combination Emax [6] | combination Emax [7] | combination Emax (T98G (Glioblastoma)) | combination Emax [8] | combination Emax [9] | combination Emax [10] |
| --- | --- | --- | --- | --- | --- | --- | --- | --- | --- | --- | --- | --- |
| NC1(C(=O)N[C@@H](CCO)c2ccc(Cl)cc2)CCN(c2ncnc3[nH]ccc23)CC1 [Capivasertib] + COc1nnc2ccc(N3CCC(c4ccc(OCCN5CCN(C)C(=O)[C@H]5C)cc4)CC3)nn12 [AZD5153] (first compound max 10 µM, 7x7, partner max 1 µM) | 0.108 | 0.944 | 0.694 | 0.718 | 0.317 | 0.887 | 0.723 | 0.887 | 0.699 | 0.789 | 0.885 | 0.808 |
| CN(C)CCCOc1ccc(-c2ccc3ncc4c(c3c2)n(C2CCOCC2)c(=O)n4C)cn1 [AZD0156] + CCN(CCO)CCCOc1ccc2c(Nc3cc(CC(=O)Nc4cccc(F)c4)[nH]n3)ncnc2c1 [AZD2811] (first compound max 1 µM, 7x7, partner max 1 µM) | 0.0989 | 0.238 | 0.261 | 0.456 | 0.186 | 0.565 | 0.189 | 0.74 | 0.33 | 0.952 | 0.45 | 0.854 |
| COc1nnc2ccc(N3CCC(c4ccc(OCCN5CCN(C)C(=O)[C@H]5C)cc4)CC3)nn12 [AZD5153] + CC1(C)CCC(CN2CCN(c3ccc(C(=O)NS(=O)(=O)c4ccc(NCC5CCOCC5)c([N+](=O)[O-])c4)c(Oc4cnc5[nH]ccc5c4)c3)CC2)=C(c2ccc(Cl)cc2)C1 [Venetoclax] (first compound max 1 µM, 7x7, partner max 1 µM) | 0.242 | 0.774 | 0.61 | 0.443 | 0.385 | 0.761 | 0.622 | 0.682 | 0.491 | 0.579 | 0.467 | 0.566 |
| Cc1cc2ncnn2cc1Nc1ncc2c(n1)n(C1CCOCC1)c(=O)n2C [AZD7648] + C[C@@H]1COCCN1C2=NC(=NC(=C2)C3(CC3)[S@](=N)(=O)C)C4=C5C=CNC5=NC=C4 [AZD6738] (first compound max 10 µM, 7x7, partner max 10 µM) | 0.546 | 0.682 | 0.754 | 0.884 | 0.746 | 0.912 | 0.439 | 0.706 | 0.859 | 0.816 | 0.899 | 0.266 |
| C[C@@H](c1ccc2nccn2c1)n1nnc2ncc(-c3cnn(C)c3)nc21 [Savolitinib] + CC1(C)CCC(CN2CCN(c3ccc(C(=O)NS(=O)(=O)c4ccc(NCC5CCOCC5)c([N+](=O)[O-])c4)c(Oc4cnc5[nH]ccc5c4)c3)CC2)=C(c2ccc(Cl)cc2)C1 [Venetoclax] (first compound max 1 µM, 7x7, partner max 1 µM) | 0.103 | 0.0926 | 0.205 | 0.119 | 0.182 | 0.312 | 0.155 | 0.158 | 0.159 | 0.197 | 0.225 | 0.0209 |
| CN(C)CCCOc1ccc(-c2ccc3ncc4c(c3c2)n(C2CCOCC2)c(=O)n4C)cn1 [AZD0156] + C=CCn1c(=O)c2cnc(Nc3ccc(N4CCN(C)CC4)cc3)nc2n1-c1cccc(C(C)(C)O)n1 [AZD1775] (first compound max 1 µM, partner max 1 µM) | 0.294 | 0.478 | 0.452 | 0.858 | 0.473 | 0.784 | 0.357 | 0.348 | 0.657 | 0.903 | 0.901 | 0.341 |
| CN(CCO)CC[C@H](CSc1ccccc1)Nc1ccc(S(=O)(=O)NC(=O)c2ccc(N3CCC([C@@H](O)c4ccccc4-c4ccc(Cl)cc4)CC3)cc2)cc1S(=O)(=O)C(F)(F)F [AZD4320] + CCN(CCO)CCCOc1ccc2c(Nc3cc(CC(=O)Nc4cccc(F)c4)[nH]n3)ncnc2c1 [AZD2811] (first compound max 1 µM, 7x7, partner max 1 µM) | 0.784 | 0.979 | 0.18 | 0.679 | 0.735 | 0.918 | 0.57 | 0.886 | 0.554 | 1 | 0.512 | 0.974 |
| COc1cccc2c1C(=O)c1c(O)c3c(c(O)c1C2=O)C[C@@](O)(C(=O)CO)C[C@@H]3O[C@H]1C[C@H](N)[C@H](O)[C@H](C)O1 [Doxorubicin] + Cc1cc2ncnn2cc1Nc1ncc2c(n1)n(C1CCOCC1)c(=O)n2C [AZD7648] (first compound max 1 µM, 7x7, partner max 10 µM) | 0.182 | 0.986 | 0.736 | 0.537 | 0.844 | 0.856 | 0.941 | 0.979 | 0.597 | 0.983 | 0.949 | 0.727 |
| CCN(CCO)CCCOc1ccc2c(Nc3cc(CC(=O)Nc4cccc(F)c4)[nH]n3)ncnc2c1 [AZD2811] + C=CCn1c(=O)c2cnc(Nc3ccc(N4CCN(C)CC4)cc3)nc2n1-c1cccc(C(C)(C)O)n1 [AZD1775] (first compound max 1 µM, partner max 1 µM) | 0.333 | 0.6 | 0.42 | 0.801 | 0.534 | 0.775 | 0.334 | 0.848 | 0.608 | 0.971 | 0.901 | 0.854 |
| Cc1c2c(nn1C)CSCc1cc(n(C)n1)CSc1cc(c3ccccc3c1)OCCCc1c(C(=O)O)n(C)c3c-2c(Cl)ccc13 [AZD5991] + C[C@@H](Nc1cc(F)cc(F)c1)c1cc(C(=O)N(C)C)cc2c(=O)cc(N3CCOCC3)oc12 [AZD8186] (first compound max 1 µM, 7x7, partner max 3 µM) | 0.225 | 0.246 | – | 0.806 | 0.384 | 0.738 | 0.227 | 0.933 | 0.501 | 0.866 | 0.905 | 0.14 |
| COc1nnc2ccc(N3CCC(c4ccc(OCCN5CCN(C)C(=O)[C@H]5C)cc4)CC3)nn12 [AZD5153] + CN(CC[C@H](CSC1=CC=CC=C1)NC2=C(C=C(C=C2)S(=O)(=O)NC(=O)C3=CC=C(C=C3)N4CCC(CC4)[C@H](C5=CC=CC=C5C6=CC=C(C=C6)Cl)O)S(=O)(=O)C(F)(F)F)CCO [AZD4320] (first compound max 1 µM, 7x7, partner max 1 µM) | – | 0.918 | – | 0.814 | – | – | 0.925 | – | – | 0.871 | – | 0.95 |
| CC(=O)c1c(C)c2cnc(Nc3ccc(N4CCNCC4)cn3)nc2n(C2CCCC2)c1=O [Palbociclib] + CN(CC[C@H](CSC1=CC=CC=C1)NC2=C(C=C(C=C2)S(=O)(=O)NC(=O)C3=CC=C(C=C3)N4CCC(CC4)[C@H](C5=CC=CC=C5C6=CC=C(C=C6)Cl)O)S(=O)(=O)C(F)(F)F)CCO [AZD4320] (first compound max 10 µM, 7x7, partner max 1 µM) | – | 0.823 | – | 0.185 | – | – | 0.59 | – | – | 0.956 | – | 0.868 |
| C[C@@H](c1ccc2nccn2c1)n1nnc2ncc(-c3cnn(C)c3)nc21 [Savolitinib] + CN(CC[C@H](CSC1=CC=CC=C1)NC2=C(C=C(C=C2)S(=O)(=O)NC(=O)C3=CC=C(C=C3)N4CCC(CC4)[C@H](C5=CC=CC=C5C6=CC=C(C=C6)Cl)O)S(=O)(=O)C(F)(F)F)CCO [AZD4320] (first compound max 1 µM, 7x7, partner max 1 µM) | – | 0.377 | – | 0.114 | – | – | 0.276 | – | – | 0.758 | – | 0.566 |
| Cc1c2c(nn1C)CSCc1cc(n(C)n1)CSc1cc(c3ccccc3c1)OCCCc1c(C(=O)O)n(C)c3c-2c(Cl)ccc13 [AZD5991] + C1CN(CCC1(C(=O)N[C@@H](CCO)C2=CC=C(C=C2)Cl)N)C3=NC=NC4=C3C=CN4 [Capivasertib] (first compound max 1 µM, 7x7, partner max 3 µM) | 0.146 | 0.335 | 0.315 | 0.718 | 0.355 | 0.747 | – | 0.944 | 0.3 | 0.854 | 0.976 | 0.313 |
| CCc1c2c(nc3ccc(O)cc13)-c1cc3c(c(=O)n1C2)COC(=O)[C@]3(O)CC [SN-38] + O=C(c1cc(Cc2n[nH]c(=O)c3ccccc23)ccc1F)N1CCN(C(=O)C2CC2)CC1 [Olaparib] (first compound max 0.3 µM, 7x7, partner max 10 µM) | 0.0829 | 0.884 | 0.748 | – | 0.988 | 0.709 | 0.946 | 1 | 0.632 | 1 | 0.787 | 0.618 |
